Details: from C=Cc1ccc(N2C(=O)N=C(NC3CCCCC3)C23CCN(Cc2ccc(I)cc2)CC3)cc1; cc_pd bond; 2 steps

## O=C1N=C(NC2CCCCC2)C23CCN(CC2)Cc2ccc(cc2)CCc2ccc(cc2)N13
  ring closure, yield of all isomers: 2.3%
